Reference: US11919902B2, “Aryl-bipyridine amine derivatives as phosphatidylinositol phosphate kinase inhibitors” (HiberCell, Inc., priority 2017, dated 2024)

Key:
[1] = target: T1, PIP4K2A (full length protein, SignalChem) (Homo sapiens, UniProt P48426); assay: Kinase Assay PIP4K2 A (Sprint); ADP-Glo biochemical assay; conditions: Table 2; compounds listed under IC50 range headings
T1 construct: 4 nM PIP4K2A (full length protein, SignalChem); purchased SignalChem
T1 sequence (P48426 1-406): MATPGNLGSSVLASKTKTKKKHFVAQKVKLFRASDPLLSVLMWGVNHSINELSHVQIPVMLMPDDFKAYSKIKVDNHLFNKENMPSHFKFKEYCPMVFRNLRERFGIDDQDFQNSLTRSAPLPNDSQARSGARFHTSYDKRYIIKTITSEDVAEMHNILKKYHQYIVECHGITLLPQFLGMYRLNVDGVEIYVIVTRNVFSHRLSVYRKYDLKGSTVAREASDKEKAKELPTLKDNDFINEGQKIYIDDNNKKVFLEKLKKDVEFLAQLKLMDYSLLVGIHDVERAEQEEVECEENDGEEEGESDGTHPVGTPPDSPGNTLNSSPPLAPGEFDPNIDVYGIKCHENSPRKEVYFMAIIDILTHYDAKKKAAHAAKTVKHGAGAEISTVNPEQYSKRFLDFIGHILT
Outline: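 ADP-Glo luminescence detected ADP after a 1 h RT reaction started with 60 μM ATP solution. Before that, full-length PIP4K2A (4 nM in mix) with 100 μM PI(5)P diC8 was pre-incubated 15 min with compounds in MOPS buffer pH 7.2, 25 mM MgCl2, 0.005% Tween 20. IC50 derived from % inhibition relative to DMSO over 10 three-fold concentrations.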

GST tagged PIP4KtypeIIA = target: T2, GST tagged PIP4KtypeIIA (Homo sapiens, UniProt P48426); assay: ADP-glo kinase assay PIP4K 2A (PIP4KtypeIIA inhibition assay); type: biochemical; conditions: Table 3; compounds listed under IC50 range headings; 10 uM ATP, 0.5 nM PIP4KIIA
T2 construct: made in house; host or cells: E. coli
T2 sequence (P48426 1-406): T1 sequence (P48426 1-406)
Outline: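 Read-out was ADP-Glo luminescence converted to μM ADP, with IC50 plotted as % of no-inhibitor activity against log concentration. Reactions contained 10 μM ATP, 80 μM PI5P with DOPE carrier, and 0.5 nM GST-tagged PIP4KIIA (E. coli-expressed) in pH 7.3 HEPES/MgCl2 buffer with 5% DMSO. Enzyme and compound (≤4.8 μM) were preincubated 1 h at 27 °C before the 1 h reaction.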

GST tagged PIP4KtypeIIB = target: T3, GST tagged PIP4KtypeIIB (Homo sapiens, UniProt P78356); assay: Trans-FI P kinase assay PIP4K2B (PIP4KtypeIIB inhibition assay); type: biochemical; conditions: Table 4; compounds listed under IC50 range headings; 100 uM GTP, 5 nM PIP4KIIB; read-out: Trans-FI P kinase assays: PIP4K2B IC50
T3 construct: made in house; host or cells: E. coli
T3 sequence (P78356 1-416): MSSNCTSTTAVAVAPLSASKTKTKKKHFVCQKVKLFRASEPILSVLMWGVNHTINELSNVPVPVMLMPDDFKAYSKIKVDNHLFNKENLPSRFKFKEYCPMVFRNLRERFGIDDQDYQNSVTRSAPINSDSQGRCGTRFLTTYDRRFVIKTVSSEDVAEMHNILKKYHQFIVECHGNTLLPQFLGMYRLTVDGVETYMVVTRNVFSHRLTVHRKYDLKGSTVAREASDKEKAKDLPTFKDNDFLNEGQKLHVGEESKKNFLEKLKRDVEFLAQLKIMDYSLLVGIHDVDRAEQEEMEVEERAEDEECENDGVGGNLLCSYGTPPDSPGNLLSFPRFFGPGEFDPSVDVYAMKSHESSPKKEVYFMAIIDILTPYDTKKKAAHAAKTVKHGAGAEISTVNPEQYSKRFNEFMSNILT
Outline: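 Transcreener FI fluorescence, converted to GDP by calibration, tracked product from 5 nM E. coli-expressed GST-PIP4KIIB acting on 80 uM PI5P (DOPE carrier) with 100 uM GTP. Compound (top 4.8 uM final, 5% DMSO) was preincubated 1 h at 27 C before the 2 h reaction; IC50 fitted from residual activity.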

Compound	IC50 [1]	IC50 (GST tagged PIP4KtypeIIA)	IC50 (GST tagged PIP4KtypeIIB)
Cc1cc(N2CCCC2=O)ccc1-c1cncc(-c2ccnc3[nH]c(C(=O)N(C)C)cc23)c1 [Example 169, N,N-dimethyl-4-(5-(2-methyl-4-(2-oxopyrrolidin-1-yl)phenyl)pyridin-3-yl)-1H-pyrrolo[2,3-b]pyridine-2-carboxamide]	0.1 to 1 µM	1 to 2.5 µM	0.1 to 1 µM
CNC(=O)c1cc2c(-c3cncc(-c4ccc(N5CCCC5=O)cc4C)c3)ccnc2o1 [Example 170, N-methyl-4-(5-(2-methyl-4-(2-oxopyrrolidin-1-yl)phenyl)pyridin-3-yl)furo[2,3-b]pyridine-2-carboxamide]	0.005 to 0.1 µM	0.1 to 1 µM	0.1 to 1 µM
COC(=O)c1cc2c(-c3cncc(-c4ccc(N5CCCC5=O)cc4C)c3)ccnc2[nH]1 [Example 171, methyl 4-(5-(2-methyl-4-(2-oxopyrrolidin-1-yl)phenyl)pyridin-3-yl)-1H-pyrrolo[2,3-b]pyridine-2-carboxylate]	0.005 to 0.1 µM	0.01 to 0.1 µM	0.01 to 0.1 µM
Cc1c(-c2ccc(N3CCCC3=O)cc2)cncc1-c1cn(C)c2ncc(C(C)(C)O)cc12 [Example 172, 1-(4-(5-(5-(2-hydroxypropan-2-yl)-1-methyl-1H-pyrrolo[2,3-b]pyridin-3-yl)-4-methylpyridin-3-yl)phenyl)pyrrolidin-2-one]	0.1 to 1 µM	1 to 2.5 µM	1 to 2.5 µM
Cc1c(-c2ccc(N3CCCC3=O)cc2)cncc1-c1ccnc2[nH]c(C(=O)N(C)C)cc12 [Example 173, N,N-dimethyl-4-(4-methyl-5-(4-(2-oxopyrrolidin-1-yl)phenyl)pyridin-3-yl)-1H-pyrrolo[2,3-b]pyridine-2-carboxamide]	0.005 to 0.1 µM	0.1 to 1 µM	0.1 to 1 µM
CNC(=O)c1cc2c(-c3cncc(-c4ccc(N5CCCC5=O)cc4)c3C)ccnc2o1 [Example 174, N-methyl-4-(4-methyl-5-(4-(2-oxopyrrolidin-1-yl)phenyl)pyridin-3-yl)furo[2,3-b]pyridine-2-carboxamide]	0.005 to 0.1 µM	0.1 to 1 µM	0.1 to 1 µM
COC(=O)c1cc2c(-c3cncc(-c4ccc(N5CCCC5=O)cc4)c3C)ccnc2[nH]1 [Example 175, methyl 4-(4-methyl-5-(4-(2-oxopyrrolidin-1-yl)phenyl)pyridin-3-yl)-1H-pyrrolo[2,3-b]pyridine-2-carboxylate]	0.005 to 0.1 µM	0.01 to 0.1 µM	0.01 to 0.1 µM
Cn1cc(-c2cncnc2)c2cc(-c3cncc(-c4ccc(N5CCCC5=O)cc4)c3)cnc21 [Example 176, 1-(4-(5-(1-methyl-3-(pyrimidin-5-yl)-1H-pyrrolo[2,3-b]pyridin-5-yl)pyridin-3-yl)phenyl)pyrrolidin-2-one]	0.005 to 0.1 µM	0.1 to 1 µM	1 to 2.5 µM
O=C1CCCN1c1ccc(-c2cncc(-n3cnc4ccccc43)c2)cc1 [Example 177, 1-(4-(5-(1H-benzo[d]imidazol-1-yl)pyridin-3-yl)phenyl)pyrrolidin-2-one]	0.1 to 1 µM	0.1 to 1 µM	0.1 to 1 µM
CN(CC1CCNCC1)C(=O)c1ccc(-c2cncc(-c3ccncc3)c2)cc1 [Example 179, 4-([3,4′-bipyridin]-5-yl)-N-methyl-N-(piperidin-4-ylmethyl)benzamide]	< 5 µM	> 5 µM	> 5 µM
CN(CC1CCCNC1)C(=O)c1ccc(-c2cncc(-c3ccncc3)c2)cc1 (stereo not drawn) [Example 180, 4-([3,4′-bipyridin]-5-yl)-N-methyl-N-(piperidin-3-ylmethyl)benzamide]	< 5 µM	> 5 µM	> 5 µM
CN(C[C@H]1CC[C@H](N)CC1)C(=O)c1ccc(-c2cncc(-c3ccncc3)c2)cc1 [Example 181, 4-([3,4′-bipyridin]-5-yl)-N-(((1r,4r)-4-aminocyclohexyl)methyl)-N-methylbenzamide]	< 5 µM	> 5 µM	> 5 µM
CN(C)C(=O)c1ccc(-c2cc(-c3ccnc(CNC(=O)c4ccc(NC(=O)OC(C)(C)C)cc4)c3)cnc2N)nc1 [Example 187, tert-butyl(4-(((2′-amino-5-(dimethylcarbamoyl)-[2,3′:5′,4″-terpyridin]-2″-yl)methyl)carbamoyl)phenyl)carbamate]	2.5 to 5 µM	> 5 µM	> 5 µM
CN(C)C(=O)c1ccc(-c2cc(-c3ccnc(CNC(=O)c4ccc(N)cc4)c3)cnc2N)nc1 [Example 188, 2′-amino-2″-((4-aminobenzamido)methyl)-N,N-dimethyl-[2,3′:5′,4″-terpyridine]-5-carboxamide]	1 to 2.5 µM	> 5 µM	1 to 2.5 µM
CN(C)C(=O)c1ccc(-c2cc(-c3ccnc(CNC(=O)c4cccc(NC(=O)OC(C)(C)C)c4)c3)cnc2N)nc1 [Example 190, tert-butyl (3-(((2′-amino-5-(dimethylcarbamoyl)-[2,3′:5′,4″-terpyridin]-2″-yl)methyl)carbamoyl)phenyl)carbamate]	2.5 to 5 µM	> 5 µM	> 5 µM
CN(C)C(=O)c1ccc(-c2cc(-c3ccnc(CNC(=O)c4cccc(N)c4)c3)cnc2N)nc1 [Example 191, 2′-amino-2″-((3-aminobenzamido)methyl)-N,N-dimethyl-[2,3′:5′,4″-terpyridine]-5-carboxamide]	1 to 2.5 µM	> 5 µM	1 to 2.5 µM
CN(C)C(=O)c1ccc(-c2cc(-c3ccnc(CNC(=O)CCc4cccc(NC(=O)OC(C)(C)C)c4)c3)cnc2N)nc1 [Example 193, tert-butyl (3-(3-(((2′-amino-5-(dimethylcarbamoyl)-[2,3′:5′,4″-terpyridin]-2″-yl)methyl)amino)-3-oxopropyl)phenyl)carbamate]	1 to 2.5 µM	> 5 µM	2.5 to 5 µM
CN(C)C(=O)c1ccc(-c2cc(-c3ccnc(CNC(=O)CCc4cccc(N)c4)c3)cnc2N)nc1 [Example 194, 2′-amino-2″-((3-(3-aminophenyl)propanamido)methyl)-N,N-dimethyl-[2,3′:5′,4″-terpyridine]-5-carboxamide]	1 to 2.5 µM	> 5 µM	2.5 to 5 µM
CN(C)C/C=C/C(=O)Nc1cccc(CCC(=O)NCc2cc(-c3cnc(N)c(-c4ccc(C(=O)N(C)C)cn4)c3)ccn2)c1 [Example 195, (E)-2′-amino-2″-((3-(3-(4-(dimethylamino)but-2-enamido)phenyl)propanamido)methyl)-N,N-dimethyl-[2,3′:5′,4″-terpyridine]-5-carboxamide]	< 5 µM	> 5 µM	2.5 to 5 µM
CN(C)C(=O)c1ccc(-c2cc(-c3ccnc4nc[nH]c34)cnc2N)nc1 [Example 213, 2′-amino-5′-(1H-imidazo[4,5-b]pyridin-7-yl)-N,N-dimethyl-[2,3′-bipyridine]-5-carboxamide]	0.1 to 1 µM	2.5 to 5 µM	1 to 2.5 µM
CN(C)C(=O)c1ccc(-c2cc(-c3[nH]nc4ncncc34)cnc2N)nc1 [Example 214, 2′-amino-N,N-dimethyl-5′-(2H-pyrazolo[3,4-d]pyrimidin-3-yl)-[2,3′-bipyridine]-5-carboxamide]	0.1 to 1 µM	0.1 to 1 µM	0.1 to 1 µM
O=C1CCCN1c1ccc(-c2cncc(-c3ccnc4[nH]ncc34)c2)cc1 [Example 215, 1-(4-(5-(2H-pyrazolo[3,4-b]pyridin-4-yl)pyridin-3-yl)phenyl)pyrrolidin-2-one]	0.005 to 0.1 µM	0.1 to 1 µM	0.1 to 1 µM
CN(C)C(=O)c1ccc(-c2cc(-c3cc(Nc4cccc(N)c4)ncn3)cnc2N)nc1 [Example 216, 2′-amino-5′-(6-((3-aminophenyl)amino)pyrimidin-4-yl)-N,N-dimethyl-[2,3′-bipyridine]-5-carboxamide]	0.1 to 1 µM	0.1 to 1 µM	0.1 to 1 µM
